For one data set, the system named is NCI-H2228. Put plainly: Antiproliferative activity against human NCI-H2228 cells assessed as inhibition of cell proliferation incubated for 96 hrs by cell-titer-Glo assay. Format: functional, cell-based. Particulars: NCI-H2228, 96 h.
Data set [1] is described as follows: Antiproliferative activity against human KARPAS299 cells assessed as inhibition of cell proliferation incubated for 96 hrs by cell-titer-Glo assay. The data set is classed as functional, cell-based. Particulars: KARPAS-299, 96 h.
Data set [2] addresses ALK tyrosine kinase receptor (Homo sapiens, UniProt Q9UM73). In words: Inhibition of wild type human recombinant ALK using TK substrate-biotin incubated for 30 mins by HTRF assay. In general terms: In TR-FRET formats the signal depends on donor and acceptor labels being close together.
Data set [3] addresses ALK tyrosine kinase receptor (Homo sapiens, UniProt Q9UM73, L1196M). In words: Inhibition of ALK L1196M mutant (unknown origin) using TK substrate-biotin incubated for 30 mins by HTRF assay.
The nature of data set [4]: Clearance in rat. Format: ADME, organism-based. To be noted: in vivo.
The nature of data set [5]: Oral bioavailability in Sprague-Dawley rat at 5 mg/kg by LC-MS/MS method. The data set is classed as ADME, organism-based. To be noted: in vivo.
Data set [6] is described as follows: Half life in Sprague-Dawley rat at 1 mg/kg, iv by LC-MS/MS method. Format: ADME, organism-based. To be noted: in vivo.
Data set [7] is described as follows: Tmax in beagle dog at 3 mg/kg, po by LC-MS/MS method. Format: ADME, organism-based, Canis lupus familiaris. Particulars: in vivo.
Data set [8] is described as follows: Volume of distribution in Sprague-Dawley rat at 1 mg/kg, iv by LC-MS/MS method. The data set is classed as ADME, organism-based. Particulars: in vivo.
Data set [9] can be described thus: Volume of distribution in beagle dog at 1 mg/kg, iv by LC-MS/MS method. The data set is classed as ADME, organism-based, Canis lupus familiaris. To be noted: in vivo.
Data set [10] in a line: Oral bioavailability in beagle dog at 3 mg/kg by LC-MS/MS method. The data set is classed as ADME, organism-based, Canis lupus familiaris. To be noted: in vivo.
A short description of data set [11]: AUC (0 to infinity) in Sprague-Dawley rat at 5 mg/kg, po by LC-MS/MS method. On the set-up: dose 5 mg/kg, time infinity, route oral. Format: ADME, organism-based. To be noted: in vivo.
For the next data set, the system named is Mus musculus. In words: Toxicity in human NCI-H2228 cells xenografted Balb/c mouse EML4-ALK NSCLC model assessed as induction of body weight loss at 30 mg/kg, po qd for 2 weeks. Format: organism-based. To be noted: in vivo, 336 h.
Data set [12] in a line: Clearance in Sprague-Dawley rat at 1 mg/kg, iv by LC-MS/MS method. Format: ADME, organism-based. To be noted: in vivo.
Data set [13] in a line: Cmax in Sprague-Dawley rat at 5 mg/kg, po by LC-MS/MS method. Format: ADME, organism-based. On the set-up: dose 5 mg/kg, route oral. Particulars: in vivo.
Data set [14] in a line: Cmax in beagle dog at 3 mg/kg, po by LC-MS/MS method. Format: ADME, organism-based, Canis lupus familiaris. On the set-up: dose 3 mg/kg, route oral. To be noted: in vivo.
Data set [15] in a line: AUC (0 to infinity) in Sprague-Dawley rat at 1 mg/kg, iv by LC-MS/MS method. The data set is classed as ADME, organism-based. On the set-up: dose 1 mg/kg, route intravenous, time infinity. To be noted: in vivo.
Data set [16] in a line: Tmax in Sprague-Dawley rat at 5 mg/kg, po by LC-MS/MS method. To be noted: in vivo. The data set is classed as ADME, organism-based.
Data set [17] is described as follows: Clearance in beagle dog at 1 mg/kg, iv by LC-MS/MS method. The data set is classed as ADME, organism-based, Canis lupus familiaris. To be noted: in vivo.
Data set [18] can be described thus: AUC (0 to infinity) in beagle dog at 1 mg/kg, iv by LC-MS/MS method. Particulars: in vivo. Format: ADME, organism-based, Canis lupus familiaris. On the set-up: dose 1 mg/kg, route intravenous, time infinity.
The nature of data set [19]: Half life in beagle dog at 1 mg/kg, iv by LC-MS/MS method. The data set is classed as ADME, organism-based, Canis lupus familiaris. Particulars: in vivo.
The nature of data set [20]: AUC (0 to infinity) in beagle dog at 3 mg/kg, po by LC-MS/MS method. Format: ADME, organism-based, Canis lupus familiaris. More on the design: dose 3 mg/kg, route oral, time infinity. Particulars: in vivo.

ALK tyrosine kinase receptor (Homo sapiens, UniProt Q9UM73, L1196M), sequence (Q9UM73 19-1620 L1196M limits assumed): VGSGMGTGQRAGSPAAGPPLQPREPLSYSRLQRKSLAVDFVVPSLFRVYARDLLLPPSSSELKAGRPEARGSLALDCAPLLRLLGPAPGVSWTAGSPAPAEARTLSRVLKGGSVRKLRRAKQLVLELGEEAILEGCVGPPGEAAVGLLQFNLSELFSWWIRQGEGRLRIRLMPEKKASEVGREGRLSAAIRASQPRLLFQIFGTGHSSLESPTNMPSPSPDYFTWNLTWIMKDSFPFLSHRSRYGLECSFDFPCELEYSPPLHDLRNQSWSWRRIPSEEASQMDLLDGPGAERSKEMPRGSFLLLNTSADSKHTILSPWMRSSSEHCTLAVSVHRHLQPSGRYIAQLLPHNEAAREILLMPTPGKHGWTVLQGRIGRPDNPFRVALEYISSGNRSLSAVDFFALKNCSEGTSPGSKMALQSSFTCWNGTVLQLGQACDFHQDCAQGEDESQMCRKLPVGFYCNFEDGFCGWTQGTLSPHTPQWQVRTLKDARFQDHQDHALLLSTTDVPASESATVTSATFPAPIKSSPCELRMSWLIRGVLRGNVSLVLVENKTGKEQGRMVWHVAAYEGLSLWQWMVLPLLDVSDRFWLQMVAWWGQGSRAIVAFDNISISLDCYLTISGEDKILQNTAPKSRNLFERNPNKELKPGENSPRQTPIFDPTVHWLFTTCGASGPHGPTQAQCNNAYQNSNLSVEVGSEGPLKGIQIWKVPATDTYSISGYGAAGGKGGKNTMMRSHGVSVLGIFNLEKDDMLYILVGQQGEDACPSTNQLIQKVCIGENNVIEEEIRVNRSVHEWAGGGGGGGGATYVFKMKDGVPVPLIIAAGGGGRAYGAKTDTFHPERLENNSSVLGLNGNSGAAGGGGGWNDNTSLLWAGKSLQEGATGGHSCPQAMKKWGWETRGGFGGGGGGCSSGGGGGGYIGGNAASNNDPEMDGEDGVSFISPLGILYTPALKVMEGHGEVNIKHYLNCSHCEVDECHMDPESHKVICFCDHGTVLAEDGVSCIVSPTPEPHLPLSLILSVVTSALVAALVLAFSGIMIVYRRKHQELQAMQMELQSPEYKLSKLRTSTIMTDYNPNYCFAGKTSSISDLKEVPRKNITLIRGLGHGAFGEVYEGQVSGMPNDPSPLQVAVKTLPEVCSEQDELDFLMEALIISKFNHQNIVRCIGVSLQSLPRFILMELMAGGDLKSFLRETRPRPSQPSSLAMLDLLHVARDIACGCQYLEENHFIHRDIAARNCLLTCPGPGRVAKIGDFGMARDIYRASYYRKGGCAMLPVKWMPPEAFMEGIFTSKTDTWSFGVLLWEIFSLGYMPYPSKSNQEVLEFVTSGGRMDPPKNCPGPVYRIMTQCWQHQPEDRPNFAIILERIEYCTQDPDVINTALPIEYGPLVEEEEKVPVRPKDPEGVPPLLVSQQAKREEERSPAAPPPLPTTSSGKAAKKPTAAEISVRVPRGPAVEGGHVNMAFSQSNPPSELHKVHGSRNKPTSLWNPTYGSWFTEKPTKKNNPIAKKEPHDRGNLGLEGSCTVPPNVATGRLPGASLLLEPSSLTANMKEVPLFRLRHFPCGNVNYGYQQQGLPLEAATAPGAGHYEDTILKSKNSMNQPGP
ALK tyrosine kinase receptor (Homo sapiens, UniProt Q9UM73), sequence (Q9UM73 whole entry): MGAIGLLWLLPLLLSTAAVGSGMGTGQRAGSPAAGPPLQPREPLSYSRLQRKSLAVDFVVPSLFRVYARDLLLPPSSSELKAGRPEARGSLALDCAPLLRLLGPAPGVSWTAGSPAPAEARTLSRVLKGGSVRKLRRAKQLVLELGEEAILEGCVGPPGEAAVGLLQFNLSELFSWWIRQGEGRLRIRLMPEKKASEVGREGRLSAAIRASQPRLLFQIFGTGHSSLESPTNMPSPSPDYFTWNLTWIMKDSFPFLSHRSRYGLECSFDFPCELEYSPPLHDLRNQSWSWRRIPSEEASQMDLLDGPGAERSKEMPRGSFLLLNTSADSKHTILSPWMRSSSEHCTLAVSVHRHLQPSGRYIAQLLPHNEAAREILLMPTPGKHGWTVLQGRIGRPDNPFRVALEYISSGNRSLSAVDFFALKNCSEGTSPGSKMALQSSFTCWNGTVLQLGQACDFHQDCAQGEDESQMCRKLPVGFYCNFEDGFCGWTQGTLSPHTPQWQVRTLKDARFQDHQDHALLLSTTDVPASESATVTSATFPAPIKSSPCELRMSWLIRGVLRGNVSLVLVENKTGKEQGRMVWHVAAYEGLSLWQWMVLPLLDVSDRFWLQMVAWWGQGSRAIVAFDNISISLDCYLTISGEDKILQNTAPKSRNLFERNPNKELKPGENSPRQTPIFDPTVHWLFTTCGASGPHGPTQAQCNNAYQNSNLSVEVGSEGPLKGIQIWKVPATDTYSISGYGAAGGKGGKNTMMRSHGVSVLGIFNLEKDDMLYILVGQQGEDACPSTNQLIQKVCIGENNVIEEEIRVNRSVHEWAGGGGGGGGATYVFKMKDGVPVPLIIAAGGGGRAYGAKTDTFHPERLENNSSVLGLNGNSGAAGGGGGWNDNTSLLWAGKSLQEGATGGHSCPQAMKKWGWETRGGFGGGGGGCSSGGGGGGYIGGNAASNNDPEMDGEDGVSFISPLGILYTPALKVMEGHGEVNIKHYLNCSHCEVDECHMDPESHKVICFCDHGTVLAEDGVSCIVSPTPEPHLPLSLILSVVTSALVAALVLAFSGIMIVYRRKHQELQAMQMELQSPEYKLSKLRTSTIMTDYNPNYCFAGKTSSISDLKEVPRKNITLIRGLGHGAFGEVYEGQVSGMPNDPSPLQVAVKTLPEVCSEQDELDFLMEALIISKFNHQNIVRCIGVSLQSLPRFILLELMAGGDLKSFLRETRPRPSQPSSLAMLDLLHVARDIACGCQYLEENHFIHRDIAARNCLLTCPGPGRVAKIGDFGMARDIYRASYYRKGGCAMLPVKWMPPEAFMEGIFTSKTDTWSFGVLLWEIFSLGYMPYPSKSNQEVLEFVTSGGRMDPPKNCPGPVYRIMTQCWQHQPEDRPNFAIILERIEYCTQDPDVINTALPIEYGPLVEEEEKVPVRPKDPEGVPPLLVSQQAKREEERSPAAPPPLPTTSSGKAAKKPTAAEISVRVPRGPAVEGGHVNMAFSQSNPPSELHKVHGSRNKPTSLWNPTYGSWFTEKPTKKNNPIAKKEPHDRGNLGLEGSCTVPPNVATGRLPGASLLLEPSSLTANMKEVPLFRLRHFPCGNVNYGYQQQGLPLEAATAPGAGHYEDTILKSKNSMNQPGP

For `Cc1cc(Nc2ncc(Cl)c(Nc3cn(C)nc3S(=O)(=O)C(C)C)n2)c(OC(C)C)cc1C1CCNCC1`, the half-inhibitory concentration (IC50) (as a rule, the concentration at which inhibition is half-maximal) in the data set on NCI-H2228 was 225 nM; in data set [1] it was 17 nM; in data set [2] it was 8 nM; in [3], 20 nM.
As to `Cc1cc(Nc2ncc(Cl)c(Nc3cn(C)nc3S(=O)(=O)C(C)C)n2)c(OC2CC2)cc1C1CCNCC1`, the concentration for half-maximal inhibition (IC50) is 122 nM in the data set with NCI-H2228 and 9 nM in data set [1].
Take `Cc1cc(Nc2ncc(Cl)c(Nc3cn(C)nc3S(=O)(=O)C(C)C)n2)c(OC2CC2)cc1C1CCN(C)CC1`: the clearance (in general, the rate of elimination divided by the concentration) in [4] is 22.7 mL/min/kg.
On to `Cc1cc(Nc2ncc(Cl)c(Nc3cn(C)nc3S(=O)(=O)C(C)C)n2)c(OCC2CC2)cc1C1CCNCC1`, for which the values for the IC50 (in the data set with NCI-H2228; in [1]) were 262 nM and 43 nM, respectively.
Take `Cc1cc(Nc2ncc(Cl)c(Nc3cn(C)nc3S(=O)(=O)C(C)C)n2)c(OCC2CC2)cc1C1CCN(C)CC1`: the half-inhibitory concentration (IC50) in the data set with NCI-H2228 came to 226 nM; in data set [1], 74 nM.
The like results for `Cc1cc(Nc2ncc(Cl)c(Nc3cn(C)nc3S(=O)(=O)C(C)C)n2)c(OC(CF)CF)cc1C1CCN(C)CC1` were, in that order, 403 nM and 62 nM.
With `Cc1cc(Nc2ncc(Cl)c(Nc3cn(C)nc3S(=O)(=O)C(C)C)n2)c(OC(F)(F)F)cc1C1CCN(C)CC1`, the IC50 in the data set with NCI-H2228 is 374 nM; in data set [1], 20 nM.
Turning to `Cc1cc(Nc2ncc(Cl)c(Nc3cn(C)nc3S(=O)(=O)C(C)C)n2)c(C(F)(F)F)cc1C1CCN(C)CC1`, the half-inhibitory concentration (IC50) in the data set on NCI-H2228 came out at 1080 nM; in data set [1], 74 nM.
Regarding `Cc1cc(Nc2ncc(Cl)c(Nc3cn(C)nc3S(=O)(=O)C(C)C)n2)c(C(C)C)cc1C1CCN(C)CC1`, the IC50 in the data set with NCI-H2228 is 660 nM.
Turning to `CC(C)S(=O)(=O)c1nn(C)cc1Nc1nc(Nc2ccc(C3CCN(C)CC3)cc2OC2CC2)ncc1Cl`, the 50% inhibitory concentration (IC50) in the data set on NCI-H2228 was determined as 36 nM; in data set [1], 7 nM. In data set [4], the clearance was found to be 79.8 mL/min/kg.
In the case of `CC(C)S(=O)(=O)c1nn(C)cc1Nc1nc(Nc2cc(Cl)c(C3CCN(C)CC3)cc2OC2CC2)ncc1Cl`, the half-maximal inhibitory concentration (IC50) with NCI-H2228 came to 103 nM; in data set [1], 15 nM.
For `CC(C)S(=O)(=O)c1nn(C)cc1Nc1nc(Nc2cc(C#N)c(C3CCN(C)CC3)cc2OC2CC2)ncc1Cl`, the results for the IC50 (with NCI-H2228; in data set [1]) were 165 nM and 100 nM, respectively.
Turning to `Cc1cc(Nc2ncc(Cl)c(Nc3cn(C)nc3S(=O)(=O)C(C)C)n2)c(OC(C)C)cc1C1CNC1`, the values for the IC50 (in the data set on NCI-H2228; in [1]) were 288 nM and 60 nM, respectively.
Turning to `Cc1cc(Nc2ncc(Cl)c(Nc3cn(C)nc3S(=O)(=O)C(C)C)n2)c(OC(C)C)cc1C1CN(C)C1`, the IC50 in the data set with NCI-H2228 came to 270 nM; in data set [1] it was 17 nM; in data set [2], 2 nM; in [3], 5 nM.
On to `Cc1cc(Nc2ncc(Cl)c(Nc3cn(C)nc3S(=O)(=O)C(C)C)n2)c(OC(C)C)cc1C1CCNC1` (stereo not drawn), for which the IC50 in the data set on NCI-H2228 turned out to be 364 nM; in data set [1], 28 nM.
The like results for `Cc1cc(Nc2ncc(Cl)c(Nc3cn(C)nc3S(=O)(=O)C(C)C)n2)c(OC(C)C)cc1C1CCN(C)C1` (stereo not drawn) were, in that order, 131 nM and 11 nM.
On to `Cc1cc(Nc2ncc(Cl)c(Nc3cn(C)nc3S(=O)(=O)C(C)C)n2)c(OC2CC2)cc1C1CCN(C(=O)C(C)C)CC1`, for which the results for the concentration for half-maximal inhibition (IC50) (in the data set with NCI-H2228; in data set [2]; in data set [3]) were 149 nM, 26 nM and 29 nM, respectively.
On to `CCNC(=O)N1CCC(c2cc(OC3CC3)c(Nc3ncc(Cl)c(Nc4cn(C)nc4S(=O)(=O)C(C)C)n3)cc2C)CC1`, for which the concentration for half-maximal inhibition (IC50) in the data set on NCI-H2228 came to 82 nM; in [1], 20 nM; in data set [2], 4 nM; in [3], 6 nM.
Regarding `Cc1cc(Nc2ncc(Cl)c(Nc3cn(C)nc3S(=O)(=O)C(C)C)n2)c(OC2CC2)cc1C1CCCN(C)C1` (stereo not drawn), the IC50 in the data set with NCI-H2228 was determined as 32 nM; in [1] it was 3 nM; in [2] it was 3 nM; in data set [3], 7 nM.
`CS(=O)(=O)O.Cc1cc(Nc2ncc(Cl)c(Nc3cn(C)nc3S(=O)(=O)C(C)C)n2)c(OC(C)C)cc1C1CCN(C)CC1`: the bioavailability (usually dose-corrected exposure relative to a reference, in per cent) is 63.2% in data set [5] and 49.2% in [10]. In addition, the half-life (in general, how long it takes for the measured level to halve) in data set [6] is 5.1 h; in [19], 4.9 h. Besides, the Tmax (commonly the time from dosing to the highest level) came out at 2 h in data set [7] and 6.7 h in data set [16]. The distribution volume (Vd) (usually a proportionality between amount in the body and measured concentration, not a real space) worked out at 7.5 L/kg in [8] and 11 L/kg in [9]. The area under the curve AUC(0-inf) (as a rule, total exposure, with the tail of the curve extrapolated) in data set [11] worked out at 3120 ng·h/mL; in [15], 988 ng·h/mL; in data set [18] it was 637 ng·h/mL; in data set [20], 952 ng·h/mL. In addition, the Activity result in the data set with Mus musculus was “Non-toxic”. Besides, the values for the clearance in [12] and in [17] were 16.9 mL/min/kg and 26.2 mL/min/kg, respectively. Moreover, the Cmax (commonly the highest concentration seen after dosing) stood at 199 ng/mL in [13] and 85.8 ng/mL in [14].

The record behind these values is ChEMBL document CHEMBL3603807, “Discovery of 2-arylamino-4-(1-methyl-3-isopropylsulfonyl-4-pyrazol-amino)pyrimidines as potent anaplastic lymphoma kinase (ALK) inhibitors” (Bioorg Med Chem Lett, 2015).
